One assay concerns β-galactosidase. Put plainly: Contagious aging (bystander effect) model: β-galactosidase activity by X-gal staining in R6 young fibroblasts treated with product, then MCR20 conditioned medium. It is filed as cell-based. To be noted: R6 passage young human dermal fibroblasts, treated then placed in contact with MCR20 conditioned medium; compositions diluted in 1,3-propanediol to 0.1% by mass.

Assay [1] relates to extracellular interleukin IL-6. Briefly: Contagious aging (bystander effect) model: extracellular IL-6 by ELISA in R6 young fibroblasts treated with product, then MCR20 conditioned medium. It is filed as cell-based, human. Particulars: for Extracellular IL-6, N1i: R6 passage young human dermal fibroblasts, treated then placed in contact with MCR20 conditioned medium, compositions diluted in 1,3-propanediol to 0.1% by mass.
Description: This method uses a specific antibody for human IL-6 attached to the bottom of the wells of a measuring plate. The samples to be assayed are added to the wells and the IL-6 present in the samples binds to the immobilized antibody. The wells are then washed and another biotinylated anti-human IL-6 antibody is added.
The wells are once again rinsed to remove the nonbound antibody, and streptavidin conjugated to the enzyme HRP (horseradish peroxidase) is added to the wells. The wells are once again rinsed and the HRP substrate tetramethylbenzidine is added to the wells.
The intensity of the color develops proportionately to the amount of IL-6 bound. The “stop” solution changes the color from blue to yellow, and the color intensity is measured at 450 nm by spectrophotometry. The IL-6 concentration is calculated by referring to a calibration range.
The particular process thus comprises the following steps: • Step i) of culturing of culturing human dermal fibroblasts, taken at the R19 passage in T25 flasks, • Step ii) of amplification of the cells obtained on conclusion of step i) to obtain a medium conditioned with senescent cells or “MC R20”. Amplification of the cells obtained on conclusion of step i) is performed by seeding said cells in Petri dishes at 0.3 M/Petri dish. After amplification for 4 days in Petri dishes, the culture medium of all the dishes was changed and then recovered after 48 hours of incubation. This recovered medium corresponds to the medium conditioned with senescent cells containing the SMS mediators (MCR20). • Step iii) of culturing human dermal fibroblasts, taken at the R5 passage in T25 flasks, • a step iv) of amplification of the cells obtained on conclusion of step iii) to obtain to obtain “young” or “R6” cells in the amplification phase, Steps iii) and iv) are performed in parallel with steps i) and ii).

Description for β-galactosidase: Measurement of the activity of the β-galactosidase enzyme is performed at the metabolic level, and even more particularly with a measurement involving colorimetric enzymatic detection.
Briefly, the β-galactosidase present in the cells reacts specifically with one of its substrates, X-gal (or 5-bromo-4-chloro-3-indolyl-β-D-galactopyranoside (C14H15BrClNO6)) which is deposited on the cell lawns. This substrate is a galactoside, a galactose heteroside, bonded to a substituted indole nucleus.
The particular process thus comprises the following steps: • Step i) of culturing of culturing human dermal fibroblasts, taken at the R19 passage in T25 flasks, • Step ii) of amplification of the cells obtained on conclusion of step i) to obtain a medium conditioned with senescent cells or “MC R20”. Amplification of the cells obtained on conclusion of step i) is performed by seeding said cells in Petri dishes at 0.3 M/Petri dish. After amplification for 4 days in Petri dishes, the culture medium of all the dishes was changed and then recovered after 48 hours of incubation. […]

Take `CC(=O)Oc1c(C)c(C)c2c(c1C)CC[C@@](C)(CCC[C@H](C)CCC[C@H](C)CCCC(C)C)O2` [vitamin E, D-α-tocopheryl acetate, reference compound]: the “β-galactosidase, N2i” value in the assay with β-galactosidase is on record as “N2i = 2.99 ± 0.45 number of “blue” positive cells/total number of cells”. Turning to `O=C1O[C@H]([C@@H](O)CO)C(O)=C1O` [vitamin C, ascorbic acid, reference compound], the “Extracellular IL-6, N1i” value in assay [1] is “N1i = 27.31 ± 3.87 pg/μg of proteins”. Regarding `OCCCO` [1,3-propanediol], in assay [1] (N1 = 8.96 (untreated, unstressed), N10 = 41.38 (untreated, MCR20)), the “Ratio R1=[(N10−N1i)×100]/[(N10−N1)] for extracellular IL-6” value is recorded as “R1 = 13.35”. For the same compound, the “Extracellular IL-6, N1i” value in assay [1] is given as “N1i = 37.05 ± 2.57 pg/μg of proteins”. Moreover, in the assay with β-galactosidase, the “β-galactosidase, N2i” value is “N2i = 13.40 ± 2.69 number of “blue” positive cells/total number of cells”.

Source of the values: US20210382039A1, “METHOD FOR ASSESSING THE ABILITY OF A SUBSTANCE OR OF A COMPOSITION TO PREVENT, SLOW OR ELIMINATE THE SIGNS OF AGEING OF THE SKIN OR OF THE LIPS” (SOCIETE D'EXPLOITATION DE PRODUITS POUR LES INDUSTRIES …, priority 2018, published 2021).
